How the values were obtained:
Experiment in all cases: relative viability (nuclei count vs DMSO), 5 days (fraction); higher = more cells survive
[1] = tested on: ABC-1
In short: (§1)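 For relative viability, nuclei counts in treated wells were divided by those in vehicle wells. Lung cancer cell lines had been pin-tool dosed in 1536-well plates the day after seeding and cultured for 5 days, then fixed and stained in one step (final 0.05% Triton X-100, 1% formaldehyde, 1 ug/ml Hoechst) and imaged at 4×. Doses were one drug alone or a fixed anchor-drug dose plus five library-drug doses (not always all listed) in √10 steps, and values are duplicate-plate medians.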

[2] = tested on: CAL-12T
In short: as §1

[3] = tested on: COR-L23
In short: as §1

[4] = tested on: EKVX
In short: as §1

[5] = tested on: H3255
In short: as §1

[6] = tested on: HCC-15
In short: as §1

[7] = tested on: HCC-827
In short: as §1

[8] = tested on: LK-2
In short: as §1

[9] = tested on: NCI-H1355
In short: as §1

[10] = tested on: NCI-H1437
In short: as §1

[11] = tested on: NCI-H1650
In short: as §1

[12] = tested on: NCI-H1651
In short: as §1

[13] = tested on: NCI-H1734
In short: as §1

[14] = tested on: NCI-H2228
In short: as §1

[15] = tested on: NCI-H2405
In short: as §1

[16] = tested on: NCI-H322M
In short: as §1

[17] = tested on: NCI-H520
In short: as §1

[18] = tested on: NCI-H661
In short: as §1

[19] = tested on: PC-14
In short: as §1

[20] = tested on: PC-3 [JPC-3]
In short: as §1

[21] = tested on: RERF-LC-KJ
In short: as §1

[22] = tested on: SK-MES-1
In short: as §1

[23] = tested on: SW 1573
In short: as §1

`Clc1ccc(Nc2nnc(Cc3ccncc3)c3ccccc23)cc1` [Vatalanib] + CC(=O)c1c(C)c2cnc(Nc3ccc(N4CCNCC4)cn3)nc2n(C2CCCC2)c1=O [Palbociclib] (partner 0.5 µM) gave a relative viability ([1]; first compound 0.04 µM) of 0.662, a relative viability ([1]; first compound 0.1265 µM) of 0.7 and a relative viability ([1]; first compound 0.4 µM) of 0.892. It also gave a relative viability ([1]; first compound 4 µM) of 0.59, a relative viability ([2]; first compound 0.04 µM) of 0.409 and a relative viability ([2]; first compound 0.1265 µM) of 0.312. It also gave a relative viability ([2]; first compound 0.4 µM) of 0.384, a relative viability ([2]; first compound 1.265 µM) of 0.345 and a relative viability ([2]; first compound 4 µM) of 0.425. It also gave a relative viability ([3]; first compound 0.04 µM) of 0.364, a relative viability ([3]; first compound 0.1265 µM) of 0.286 and a relative viability ([3]; first compound 0.4 µM) of 0.322. For the same molecule, the relative viability ([3]; first compound 1.265 µM) was 0.293, the relative viability ([3]; first compound 4 µM) was 0.297 and the relative viability ([4]; first compound 0.04 µM) was 0.366. For the same molecule, the relative viability ([4]; first compound 0.1265 µM) was 0.369, the relative viability ([4]; first compound 0.4 µM) was 0.343 and the relative viability ([4]; first compound 1.265 µM) was 0.375. The relative viability ([4]; first compound 4 µM) was 0.334, the relative viability ([5]; first compound 0.04 µM) was 0.308 and the relative viability ([5]; first compound 0.1265 µM) was 0.273. For the same molecule, the relative viability ([5]; first compound 0.4 µM) was 0.325, the relative viability ([5]; first compound 1.265 µM) was 0.296 and the relative viability ([5]; first compound 4 µM) was 0.309. It also gave a relative viability ([6]; first compound 0.04 µM) of 0.711, a relative viability ([6]; first compound 0.1265 µM) of 0.676 and a relative viability ([6]; first compound 0.4 µM) of 0.759. For the same molecule, the relative viability ([6]; first compound 1.265 µM) was 0.691, the relative viability ([6]; first compound 4 µM) was 0.668 and the relative viability ([7]; first compound 0.04 µM) was 0.484. The relative viability ([7]; first compound 0.1265 µM) was 0.406, the relative viability ([7]; first compound 1.265 µM) was 0.49 and the relative viability ([7]; first compound 4 µM) was 0.475. The relative viability ([8]; first compound 0.04 µM) was 0.41, the relative viability ([8]; first compound 0.1265 µM) was 0.694 and the relative viability ([8]; first compound 0.4 µM) was 0.796. For the same molecule, the relative viability ([8]; first compound 1.265 µM) was 0.762, the relative viability ([8]; first compound 4 µM) was 0.748 and the relative viability ([9]; first compound 0.04 µM) was 0.434. The relative viability ([9]; first compound 0.1265 µM) was 0.428, the relative viability ([9]; first compound 0.4 µM) was 0.424 and the relative viability ([9]; first compound 1.265 µM) was 0.35. The relative viability ([9]; first compound 4 µM) was 0.388, the relative viability ([10]; first compound 0.04 µM) was 0.309 and the relative viability ([10]; first compound 0.1265 µM) was 0.318. The relative viability ([10]; first compound 0.4 µM) was 0.356, the relative viability ([10]; first compound 1.265 µM) was 0.294 and the relative viability ([10]; first compound 4 µM) was 0.279. It also gave a relative viability ([11]; first compound 0.04 µM) of 0.364, a relative viability ([11]; first compound 0.1265 µM) of 0.384 and a relative viability ([11]; first compound 0.4 µM) of 0.299. It also gave a relative viability ([11]; first compound 1.265 µM) of 0.33, a relative viability ([11]; first compound 4 µM) of 0.312 and a relative viability ([12]; first compound 0.04 µM) of 0.51. It also gave a relative viability ([12]; first compound 0.1265 µM) of 0.496, a relative viability ([12]; first compound 0.4 µM) of 0.479 and a relative viability ([12]; first compound 1.265 µM) of 0.532. For the same molecule, the relative viability ([12]; first compound 4 µM) was 0.513, the relative viability ([13]; first compound 0.04 µM) was 0.338 and the relative viability ([13]; first compound 0.1265 µM) was 0.314. The relative viability ([13]; first compound 0.4 µM) was 0.396, the relative viability ([13]; first compound 1.265 µM) was 0.33 and the relative viability ([13]; first compound 4 µM) was 0.336. The relative viability ([14]; first compound 0.04 µM) was 0.795, the relative viability ([14]; first compound 0.1265 µM) was 0.838 and the relative viability ([14]; first compound 0.4 µM) was 0.806. For the same molecule, the relative viability ([14]; first compound 1.265 µM) was 0.765, the relative viability ([14]; first compound 4 µM) was 0.612 and the relative viability ([15]; first compound 0.04 µM) was 0.555. For the same molecule, the relative viability ([15]; first compound 0.1265 µM) was 0.496, the relative viability ([15]; first compound 0.4 µM) was 0.54 and the relative viability ([15]; first compound 4 µM) was 0.529. For the same molecule, the relative viability ([16]; first compound 0.04 µM) was 0.432, the relative viability ([16]; first compound 0.1265 µM) was 0.492 and the relative viability ([16]; first compound 0.4 µM) was 0.49. The relative viability ([16]; first compound 4 µM) was 0.501, the relative viability ([17]; first compound 0.04 µM) was 0.214 and the relative viability ([17]; first compound 0.1265 µM) was 0.242. For the same molecule, the relative viability ([17]; first compound 0.4 µM) was 0.255, the relative viability ([17]; first compound 1.265 µM) was 0.199 and the relative viability ([17]; first compound 4 µM) was 0.19. The relative viability ([18]; first compound 0.04 µM) was 0.411, the relative viability ([18]; first compound 0.1265 µM) was 0.387 and the relative viability ([18]; first compound 0.4 µM) was 0.441. For the same molecule, the relative viability ([18]; first compound 1.265 µM) was 0.397, the relative viability ([18]; first compound 4 µM) was 0.401 and the relative viability ([19]; first compound 0.04 µM) was 0.523. For the same molecule, the relative viability ([19]; first compound 0.1265 µM) was 0.492, the relative viability ([19]; first compound 0.4 µM) was 0.581 and the relative viability ([19]; first compound 1.265 µM) was 0.473. The relative viability ([19]; first compound 4 µM) was 0.532, the relative viability ([20]; first compound 0.04 µM) was 0.515 and the relative viability ([20]; first compound 0.1265 µM) was 0.549. For the same molecule, the relative viability ([20]; first compound 0.4 µM) was 0.573, the relative viability ([20]; first compound 1.265 µM) was 0.538 and the relative viability ([20]; first compound 4 µM) was 0.544. For the same molecule, the relative viability ([21]; first compound 0.04 µM) was 1.08, the relative viability ([21]; first compound 0.1265 µM) was 1.05 and the relative viability ([21]; first compound 0.4 µM) was 1.02. The relative viability ([21]; first compound 1.265 µM) was 1.02, the relative viability ([21]; first compound 4 µM) was 0.903 and the relative viability ([22]; first compound 0.04 µM) was 0.339. The relative viability ([22]; first compound 0.1265 µM) was 0.309, the relative viability ([22]; first compound 0.4 µM) was 0.347 and the relative viability ([22]; first compound 1.265 µM) was 0.309. For the same molecule, the relative viability ([22]; first compound 4 µM) was 0.305, the relative viability ([23]; first compound 0.1265 µM) was 0.403 and the relative viability ([23]; first compound 0.4 µM) was 0.461. The relative viability ([23]; first compound 1.265 µM) was 0.361 and the relative viability ([23]; first compound 4 µM) was 0.368.
